Data taken from US7939267B2, “Detection of activation of endothelial cells as surrogate marker for angiogenesis” (Laboratory Corporation of America Holdings, priority 2004, dated 2011).
Where two headings read alike, the source gives them in different places.

B1: Ang-1: angiopoietin-1, major physiological ligand for Tie-2, used to stimulate HUVEC cells (protein, UniProt Q15389 16-498, looked up)
Angiopoietin-1: HIGCSNQRRSPENSGRRYNRIQHGQCAYTFILPEHDGNCRESTTDQYNTNALQRDAPHVEPDFSSQKLQHLEHVMENYTQWLQKLENYIVENMKSEMAQIQQNAVQNHTATMLEIGTSLLSQTAEQTRKLTDVETQVLNQTSRLEIQLLENSLSTYKLEKQLLQQTNEILKIHEKNSLLEHKILEMEGKHKEELDTLKEEKENLQGLVTRQTYIIQELEKQLNRATTNNSVLQKQQLELMDTVHNLVNLCTKEGVLLKGGKREEEKPFRDCADVYQAGFNKSGIYTIYINNMPEPKKVFCNMDVNGGGWTVIQHREDGSLDFQRGWKEYKMGFGNPSGEYWLGNEFIFAITSQRQYMLRIELMDWEGNRAYSQYDRFHIGNEKQNYRLYLKGHTGTAGKQSSLILHGADFSTKDADNDNCMCKCALMLTGGWWFDACGPSNLNGMFYTAGQNHGKLNGIKWHYFKGPSYSLRSTTMMIRPLDF

Assays:
VEGFR2 = VEGFR2 (Homo sapiens, UniProt P35968)
Method: (§1) In this example, VEGFR2-VEGFR2 homodimers and phosphorylation states were measured in cell lysates from several cell lines after treatment with various concentrations of vascular endothelial growth factor (VEGF). Measurements were made using three binding compounds and a cleaving probe as described below.
(§2) • 1. Serum-starve human umbilical vein endothelial cell line (HUVEC) culture overnight before use. • 2. Stimulate cell lines with VEGF in culture media for a set period of time (1, 3, 5, 9, 14 minutes) at 37° C. Exemplary doses of VEGF are 0, 2, 10, 25, 50, 250, 1000 ng/mL. • 3. Aspirate culture media, transfer onto ice, and add lysis buffer to lyse cells in situ. • 4. Scrape and transfer lysate to microfuge tube. Incubate on ice for 30 min. Microfuge at 14,000 rpm, 4° C., for 10 min. (Centrifugation is optional.) • 5. Collect supernatants as lysates and aliquot for storage at −80° C. until use. Assay:
(§3) Assay design: As illustrated diagrammatically in FIG. 7A, VEGFR2-VEGFR2 (R2-R2) homodimers (900) are quantified ratiometrically based on the binding of a cleaving probe (902), a first bind compound (904) which is specific for the same antigenic determinant on VEGFR2 as the cleaving probe, a second binding compound (906) which is specific for a different antigenic determinant on VEGFR2 from the cleaving probe, and a third binding compound (908) which is specific for phosphorylated tyrosine. A photosensitizer is attached to the cleaving probe (902) via an avidin-biotin linkage, and the first, second, and third binding compounds are labeled with molecular tags Pro10, Pro14, and Pro2, respectively.
(§4) The total assay volume was 40 ul. The lysate volume was adjusted to 30 ul with lysis buffer. The antibodies are diluted in lysis buffer up to 10 ul. Typically ˜5000 to 15000 cell-equivalent of lysates is used per reaction. The detection limit is ˜1000 cell-equivalent of lysates.
(§5) Procedure: Final concentrations of pre-mixed binding compounds (i.e. molecular tag- or biotin-antibody conjugates) in reaction: • Pro10_anti-VEGFR2: 0.25 ug/ml (VEGFR2 homodimer) • Pro14_anti-VEGFR2: 0.25 ug/ml (total VEGFR2) • Pro2_anti-phospho-Tyr: 0.0125 ug/ml (phosphorylation) • Biotin_anti-VEGFR2: 0.25 ug/ml • 1. To assay 96-well, add 10 ul antibody mix to 30 ul lysate and incubate for 1 hour at RT. • 2. Add 2 ul streptavidin-derivatized cleaving probe (final 2 ug/well) to assay well and incubate for 45 min. • 3. Add 150 ul of wash buffer to 96-well filter plate (Millipore MAGVN2250) and incubate for 1 hr at RT for blocking. • 4. Empty filter plate by vacuum suction.

VEGFR2-VEGFR2 homodimers [1] = biological target: T1, VEGFR2-VEGFR2 homodimers (Homo sapiens, UniProt P35968)
Method: as §1, §2, §3, §4, §5

Erk = conditions: HUVEC, increasing VEGF concentrations, 5 min stimulation time (FIG. 10A)
Method: as §2
(§6) The total assay volume was 40 ul. The lysate volume was adjusted to 30 ul with lysis buffer.

RSK = conditions: HUVEC, increasing VEGF concentrations, 5 min stimulation time (FIG. 10B)
Method: as §2, §6

BAD = BAD phosphorylation in HUVEC cell lysates, releasable molecular tag assay; type: cell-based, human; conditions: increasing VEGF concentrations, 5 min stimulation time (FIG. 10C)
Method: • 1. […] Scrape and transfer lysate to microfuge tube. Incubate on ice for 30 min. […] (Centrifugation is optional.) • 5. […] Assay:
(§7) The total assay volume was 40 ul. […] The detection limit was ˜1000 cell-equivalent of lysates.
Pro52_anti-BAD (Total), 5 nM
Pro46_anti-Phospho-BAD (Phosphorylation), 5 nM
Pro53_anti-phospho-RSK (Phosphorylation), 5 nM • 1. […] Add 20 μl of Antibody mixture. • 3. […] Empty filter plate by vacuum suction. • 6. […] Repeat step 6 one more time. • 8. […] Illuminate the plate for 10 min. • 10.

Akt = conditions: HUVEC, increasing VEGF concentrations, data not shown
From the text: Results of the assays are illustrated in FIGS. 10A, 10B and 10C.

VEGFR2-VEGFR2 homodimers [2] = biological target: T1, VEGFR2-VEGFR2 homodimers; remark: listed apart in the source
Method: • 1. […] Scrape and transfer lysate to microfuge tube. Incubate on ice for 30 min. […]

Tie2-Tie2 homodimers = biological target: T2, Tie2-Tie2 homodimers (Homo sapiens, UniProt Q02763); test: Tie2 homodimerization in HUVEC cell lysates, releasable molecular tag assay; type: cell-based
T2 construct: endogenous in cells; host or cells: HUVEC
Method: (§8) • 1. […] Stimulate cell lines with 200 ng/mL Ang-1 in culture media for a set period of time (10, 30 minutes) at 37° C. • 3. […] Scrape and transfer lysate to microfuge tube. Incubate on ice for 30 min. […] (Centrifugation is optional.) • 5. […] Assay:
(§9) Assay design: As illustrated diagrammatically in FIG. 4C, Tie2-Tie2 homodimers are quantified ratiometrically based on the binding of cleaving probe (134) and binding compounds (130), and (132). A photosensitizer indicated by “PS” is attached to cleaving probe (134) via an avidin-biotin linkage, and binding compounds (130), and (132) are labeled with molecular tags Pro10, and Pro14, respectively.
as §7
Pro10_anti-Tie2: 0.25 ug/ml (Tie2 homodimer)
(§10) Pro14_anti-Tie2: 0.25 ug/ml (total Tie2)
(§11) Biotin_anti-Tie2: 0.25 ug/ml • 1. […] Empty filter plate by vacuum suction. […] Repeat one time. • 6. […] Repeat one time. • 7. […] Assay buffers are as previously described. Data Analysis: • 1. […] Report homodimerization of Tie2 as the corresponding RFU ratiometric to RFU from Pro14_anti-Tie2 from assay wells using biotin_anti-Tie2.

Tie2 = biological target: T3, Tie2 (Homo sapiens, UniProt Q02763); test: Total Tie2 receptor in HUVEC cell lysates, releasable molecular tag assay; type: cell-based; conditions: Ang-1 treatment (FIG. 8B)
T3 construct: endogenous in cells; host or cells: HUVEC
Method: as §8, §9, §7, §10, §11

T1 sequence (P35968 20-1356): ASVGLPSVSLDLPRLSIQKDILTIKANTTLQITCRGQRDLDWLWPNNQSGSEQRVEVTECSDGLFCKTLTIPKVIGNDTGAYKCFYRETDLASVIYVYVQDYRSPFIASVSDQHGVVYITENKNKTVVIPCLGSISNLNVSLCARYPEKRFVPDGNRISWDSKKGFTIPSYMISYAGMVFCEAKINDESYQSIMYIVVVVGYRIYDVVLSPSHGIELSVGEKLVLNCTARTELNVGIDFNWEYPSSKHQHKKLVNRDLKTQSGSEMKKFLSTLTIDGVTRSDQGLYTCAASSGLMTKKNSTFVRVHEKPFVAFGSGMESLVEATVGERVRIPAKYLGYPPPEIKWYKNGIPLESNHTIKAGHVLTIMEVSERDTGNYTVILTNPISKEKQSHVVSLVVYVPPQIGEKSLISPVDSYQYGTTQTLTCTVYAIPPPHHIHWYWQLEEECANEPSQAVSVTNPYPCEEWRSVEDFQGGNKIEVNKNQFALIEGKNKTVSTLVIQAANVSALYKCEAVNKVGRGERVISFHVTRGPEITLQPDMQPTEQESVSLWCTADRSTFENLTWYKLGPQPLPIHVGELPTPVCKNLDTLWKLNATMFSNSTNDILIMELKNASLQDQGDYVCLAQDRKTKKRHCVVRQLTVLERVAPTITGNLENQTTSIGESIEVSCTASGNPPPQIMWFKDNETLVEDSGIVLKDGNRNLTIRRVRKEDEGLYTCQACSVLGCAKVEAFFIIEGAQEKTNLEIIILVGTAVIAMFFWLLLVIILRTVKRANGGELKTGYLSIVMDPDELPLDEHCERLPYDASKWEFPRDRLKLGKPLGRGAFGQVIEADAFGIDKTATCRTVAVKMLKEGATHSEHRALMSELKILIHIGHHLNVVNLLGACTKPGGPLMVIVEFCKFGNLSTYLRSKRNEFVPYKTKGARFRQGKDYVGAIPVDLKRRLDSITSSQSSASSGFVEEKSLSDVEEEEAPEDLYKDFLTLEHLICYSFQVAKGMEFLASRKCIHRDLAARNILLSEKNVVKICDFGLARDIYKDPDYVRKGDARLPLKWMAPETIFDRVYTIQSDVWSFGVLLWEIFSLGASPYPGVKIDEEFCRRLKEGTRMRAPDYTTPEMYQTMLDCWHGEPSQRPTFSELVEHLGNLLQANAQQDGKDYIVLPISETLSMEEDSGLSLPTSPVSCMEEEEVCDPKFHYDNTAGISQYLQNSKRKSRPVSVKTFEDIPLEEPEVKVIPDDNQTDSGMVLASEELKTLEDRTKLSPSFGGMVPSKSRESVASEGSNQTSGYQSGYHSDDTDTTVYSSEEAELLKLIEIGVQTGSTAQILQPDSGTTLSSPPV
VEGFR2, sequence (P35968 20-1356): as above
T2 sequence (Q02763 23-1124): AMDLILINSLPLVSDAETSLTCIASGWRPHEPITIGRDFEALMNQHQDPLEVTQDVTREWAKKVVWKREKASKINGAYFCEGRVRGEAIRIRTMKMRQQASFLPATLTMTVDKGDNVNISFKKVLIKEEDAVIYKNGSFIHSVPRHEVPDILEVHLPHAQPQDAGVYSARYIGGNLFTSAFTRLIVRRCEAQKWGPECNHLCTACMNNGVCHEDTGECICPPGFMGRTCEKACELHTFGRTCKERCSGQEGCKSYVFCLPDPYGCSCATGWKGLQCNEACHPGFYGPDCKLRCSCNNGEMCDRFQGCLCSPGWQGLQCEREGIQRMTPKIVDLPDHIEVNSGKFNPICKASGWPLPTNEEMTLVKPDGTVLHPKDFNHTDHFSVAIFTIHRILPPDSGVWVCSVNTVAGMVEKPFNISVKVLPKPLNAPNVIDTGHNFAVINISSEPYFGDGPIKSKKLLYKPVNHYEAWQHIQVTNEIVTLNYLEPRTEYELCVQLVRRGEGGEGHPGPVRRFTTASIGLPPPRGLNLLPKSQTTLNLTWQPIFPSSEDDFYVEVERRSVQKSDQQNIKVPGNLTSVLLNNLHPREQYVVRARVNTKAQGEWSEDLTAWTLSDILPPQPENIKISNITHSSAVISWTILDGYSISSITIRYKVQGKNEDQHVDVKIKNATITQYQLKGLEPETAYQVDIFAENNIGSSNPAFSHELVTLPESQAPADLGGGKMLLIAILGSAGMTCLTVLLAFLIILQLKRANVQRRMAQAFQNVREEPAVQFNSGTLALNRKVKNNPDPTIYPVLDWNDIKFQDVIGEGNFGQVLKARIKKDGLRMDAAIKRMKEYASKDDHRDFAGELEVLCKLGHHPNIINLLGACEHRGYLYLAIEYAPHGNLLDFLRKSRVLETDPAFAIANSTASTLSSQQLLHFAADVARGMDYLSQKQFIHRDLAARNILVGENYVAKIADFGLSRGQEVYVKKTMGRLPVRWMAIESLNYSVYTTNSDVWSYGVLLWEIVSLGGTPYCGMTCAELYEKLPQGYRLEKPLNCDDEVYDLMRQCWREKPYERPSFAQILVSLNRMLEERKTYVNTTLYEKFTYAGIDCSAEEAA
T3 sequence (Q02763 23-1124): as above

Molecule | VEGFR2 phosphorylation (VEGFR2) | VEGFR2 phosphorylation over time (VEGFR2) | VEGFR2-VEGFR2 homodimer formation over time (VEGFR2-VEGFR2 homodimers [1]) | VEGFR2 homodimerization (VEGFR2-VEGFR2 homodimers [1]) | quantity of VEGFR2-VEGFR2 homodimers (VEGFR2-VEGFR2 homodimers [1]) | phosphorylation state of Erk (Erk) | phosphorylation state of RSK (RSK) | phosphorylation state of BAD (BAD) | phosphorylation of Akt (Akt) | VEGFR2 homodimerization (VEGFR2-VEGFR2 homodimers [2]) | quantity of Tie2-Tie2 homodimers (Tie2-Tie2 homodimers; 200 ng/mL Ang-1, 10 min of stimulation (FIG. 8A)) | quantity of Tie2-Tie2 homodimers (Tie2-Tie2 homodimers; 200 ng/mL Ang-1, 30 min stimulation (FIG. 8A)) | total amount of Tie2 receptor (Tie2)
VEGF | increases on HUVEC cells with increasing concentrations of VEGF | transient, peaking at 1 minute of stimulation and decreasing to background level by 5 minutes | form by 1 minute of VEGF stimulation, and remain after up to 14 minutes of stimulation | large increase in VEGFR2 homodimerization | increases on HUVEC cells with increasing concentrations of VEGF | increases on HUVEC cells with increasing concentrations of VEGF | increases on HUVEC cells with increasing concentrations of VEGF | increases on HUVEC cells with increasing concentrations of VEGF | increased on HUVEC cells with increasing concentrations of VEGF | large increase in VEGFR2 homodimerization |  |  | 
B1 |  |  |  |  |  |  |  |  |  |  | increase on HUVEC cells | decreases from that level | does not change with Ang-1 treatment
